Test results taken from patent US10800791B2, “Triazole ACC inhibitors and uses thereof” (Gilead Apollo, LLC, priority 2015, dated 2020).
Converted amounts (≈) assume the structure as drawn.

How the values were obtained:
Rhizoctonia solani (Rs) = test: Growth inhibition assay of fungal pathogens, Rs; assay type: cell-based; conditions: 48 h, mycelial plugs, growth inhibition at 48 hours vs 2% DMSO control, read-out: Concentration at 90% Inhibition Rs
Description: (§1) Compounds of the present invention were evaluated in a growth inhibition assay to determine the ability to control the growth of fungal pathogens, such as Botrtyis cinerea (Bc), Collectotrichum graminicola (Cg), Diplodia maydis (Dm), Fusarium moniliforme (Fm), Fusarium virguliforme (Fv), Phytophthora capsici (Pc), Rhizoctonia solani (Rs), and Septoria tritici (St).
(§2) Compounds to be tested were dissolved in DMSO at 2.5 mg/ml to produce compound stock solutions (“stocks”). Stocks were diluted with DMSO by a five-fold dilution in a 96-well stock plate, and two sets of final concentrations of 50, 10, and 2 ppm or 2, 0.4, and 0.08 ppm were obtained in vitro. A set of positive controls was also prepared, with various concentrations of Soraphen (2, 0.4, and 0.08 ppm), Metalaxyl (1.1, 0.22, and 0.04 ppm), and Metconazole (2, 0.4, and 0.08 ppm or 0.2, 0.04, and 0.008 ppm) after the five-fold dilutions. Negative controls on each plate included 2% DMSO, water, and a blank (media+2% DMSO).
(§3) Fungal spores were isolated from previously sub-cultured plates of Botrtyis cinerea (Bc), Collectotrichum graminicola (Cg), Diplodia maydis (Dm), Fusarium moniliforme (Fm), Fusarium virguliforme (Fv), Phytophthora capsici (Pc), and Septoria tritici (St). The isolated spores were diluted to individual concentrations with a 17% V8 liquid media. For Rhizoctonia solani (Rs) and Pythium irregulare, 1.5 mm mycelial plugs were used in place of spores and/4 Potato Dextrose Broth (PDB) was used for dilution. The spore concentrations and plug sizes were based on growth curves generated at 48 hours for each pathogen.
(§4) In a second 96-well plate, the spores or mycelial plugs, media, diluted compound solutions, and controls were combined. Once the compound was added, a true final concentration of compound in each well was measured by an OD600 reading, which adjusted for any compound precipitation that might have occurred in the well. Plate readings were repeated at both 24 and 48 hours. The blank negative control was used as a background subtraction. Additional visual ratings were performed at both 24 and 48 hours for checking on precipitation and confirming efficacy. Visual and OD600 ratings of the compounds at 48 hours were compared to the 2% DMSO negative control, and the percent of pathogen growth inhibition was determined based on those values.

[1] = test system: Collectotrichum graminicola (Cg); test: Growth inhibition assay of fungal pathogens, Cg; assay type: cell-based; conditions: 48 h, Collectotrichum graminicola; growth inhibition at 48 hours vs 2% DMSO control; read-out: Concentration at 90% Inhibition Cg
Description: as §1, §2, §3, §4

human (hACC2) = human (hACC2) (Homo sapiens, UniProt O00763); test: In vitro ACC inhibition assay (ADP-Glo), hACC2; assay type: biochemical; conditions: Table 2b, additional results, 5 nM ACC2, 20 μM ATP, 20 μM acetyl-CoA
Sequence of human (hACC2) (O00763 whole entry): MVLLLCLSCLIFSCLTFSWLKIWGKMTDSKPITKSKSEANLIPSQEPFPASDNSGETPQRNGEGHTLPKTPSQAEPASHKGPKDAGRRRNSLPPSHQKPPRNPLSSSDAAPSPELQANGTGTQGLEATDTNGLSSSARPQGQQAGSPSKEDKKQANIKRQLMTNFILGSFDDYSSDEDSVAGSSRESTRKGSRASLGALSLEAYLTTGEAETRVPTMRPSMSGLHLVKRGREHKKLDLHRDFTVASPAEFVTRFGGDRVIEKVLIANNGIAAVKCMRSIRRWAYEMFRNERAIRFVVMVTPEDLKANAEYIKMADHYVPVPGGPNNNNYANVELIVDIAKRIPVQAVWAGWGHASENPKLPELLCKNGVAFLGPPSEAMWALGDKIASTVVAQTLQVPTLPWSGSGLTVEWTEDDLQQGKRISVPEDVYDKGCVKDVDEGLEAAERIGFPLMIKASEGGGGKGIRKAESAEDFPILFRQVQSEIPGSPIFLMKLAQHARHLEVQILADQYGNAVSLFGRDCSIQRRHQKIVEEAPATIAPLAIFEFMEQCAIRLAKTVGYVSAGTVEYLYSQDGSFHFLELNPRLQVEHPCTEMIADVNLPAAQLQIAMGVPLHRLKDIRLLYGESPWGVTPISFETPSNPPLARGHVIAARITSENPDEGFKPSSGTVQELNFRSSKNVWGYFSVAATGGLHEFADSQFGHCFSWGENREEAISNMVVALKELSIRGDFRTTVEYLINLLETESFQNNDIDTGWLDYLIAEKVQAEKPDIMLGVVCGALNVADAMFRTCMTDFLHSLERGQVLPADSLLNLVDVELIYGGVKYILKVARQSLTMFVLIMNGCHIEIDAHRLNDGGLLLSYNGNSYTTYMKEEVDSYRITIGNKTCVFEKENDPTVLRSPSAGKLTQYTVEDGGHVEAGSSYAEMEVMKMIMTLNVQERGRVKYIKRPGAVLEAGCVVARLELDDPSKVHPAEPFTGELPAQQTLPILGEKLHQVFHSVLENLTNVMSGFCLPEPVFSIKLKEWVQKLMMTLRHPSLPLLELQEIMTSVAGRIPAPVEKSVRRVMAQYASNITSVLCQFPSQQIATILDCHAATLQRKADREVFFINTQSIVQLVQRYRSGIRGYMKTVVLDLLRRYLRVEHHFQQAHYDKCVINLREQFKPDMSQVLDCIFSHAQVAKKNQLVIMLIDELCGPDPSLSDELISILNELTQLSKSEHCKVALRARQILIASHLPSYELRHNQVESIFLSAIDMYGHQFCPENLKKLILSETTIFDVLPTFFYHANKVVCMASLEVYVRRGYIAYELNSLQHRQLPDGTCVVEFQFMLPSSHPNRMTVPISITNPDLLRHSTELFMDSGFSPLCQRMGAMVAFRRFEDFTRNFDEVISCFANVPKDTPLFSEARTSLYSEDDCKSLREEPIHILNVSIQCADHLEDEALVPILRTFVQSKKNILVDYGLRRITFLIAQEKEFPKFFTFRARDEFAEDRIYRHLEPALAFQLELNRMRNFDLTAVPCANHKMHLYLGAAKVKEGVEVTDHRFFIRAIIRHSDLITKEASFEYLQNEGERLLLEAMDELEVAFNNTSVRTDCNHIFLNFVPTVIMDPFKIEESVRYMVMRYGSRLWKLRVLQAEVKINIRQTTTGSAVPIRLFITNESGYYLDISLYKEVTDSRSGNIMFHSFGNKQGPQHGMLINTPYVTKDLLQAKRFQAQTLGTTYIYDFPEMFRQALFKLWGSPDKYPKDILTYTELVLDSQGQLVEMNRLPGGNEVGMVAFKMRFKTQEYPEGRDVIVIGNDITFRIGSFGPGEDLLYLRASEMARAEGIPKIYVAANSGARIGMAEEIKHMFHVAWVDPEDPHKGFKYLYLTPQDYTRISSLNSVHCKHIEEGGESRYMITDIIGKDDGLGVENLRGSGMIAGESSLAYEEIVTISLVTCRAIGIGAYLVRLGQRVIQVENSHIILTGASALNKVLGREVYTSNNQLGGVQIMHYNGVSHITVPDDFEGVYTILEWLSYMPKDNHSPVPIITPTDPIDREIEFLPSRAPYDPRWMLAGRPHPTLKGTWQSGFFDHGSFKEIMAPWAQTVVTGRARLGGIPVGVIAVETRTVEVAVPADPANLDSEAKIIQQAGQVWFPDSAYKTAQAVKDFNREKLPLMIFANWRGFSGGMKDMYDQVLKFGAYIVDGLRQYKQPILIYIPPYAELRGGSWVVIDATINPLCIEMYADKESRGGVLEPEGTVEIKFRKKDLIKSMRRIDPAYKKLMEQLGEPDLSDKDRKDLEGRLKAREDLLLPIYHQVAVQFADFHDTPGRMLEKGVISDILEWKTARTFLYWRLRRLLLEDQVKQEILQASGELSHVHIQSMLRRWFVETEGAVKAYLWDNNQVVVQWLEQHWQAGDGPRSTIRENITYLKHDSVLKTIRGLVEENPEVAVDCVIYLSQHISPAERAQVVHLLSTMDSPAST
Description: The detailed procedure is as follows. […] 10 μL ADP glo reagent was added. […] 20 μL kinase detection reagent was added.

C. parapsilosis = test: Antifungal Activity Assay (broth microtiter MIC), C. parapsilosis; assay type: cell-based, Candida parapsilosis; conditions: Lodderomyces parapsilosis, ATCC22019, 48 h, Table 3b (additional results); ATCC 22019; 3 replicates; MIC recorded at 48 h; read-out: MIC, C. parapsilosis ATCC 22019
Outline: (§5)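 Endpoint: lowest concentration visibly inhibiting growth relative to control after 48 h. Inoculum of 2.5×10^3 CFU/mL final in RPMI 1640+MOPS, prepared from overnight 35° C agar cultures; test compounds diluted in water to 128 μg/mL before plating.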

[2] = test system: Phytophthora capsici (Pc); test: Growth inhibition assay of fungal pathogens, Pc; assay type: cell-based; conditions: 48 h, growth inhibition at 48 hours vs 2% DMSO control, read-out: Concentration at 90% Inhibition Pc
Description: as §1, §2, §3, §4

Septoria tritici (St) = test: Growth inhibition assay of fungal pathogens, St; assay type: cell-based; conditions: Zymoseptoria tritici, 48 h, Septoria tritici; growth inhibition at 48 hours vs 2% DMSO control; read-out: Concentration at 90% Inhibition St
Description: as §1, §2, §3, §4

[3] = test system: Fusarium moniliforme (Fm); test: Growth inhibition assay of fungal pathogens, Fm; assay type: cell-based; conditions: Fusarium verticillioides, 48 h, Fusarium moniliforme; growth inhibition at 48 hours vs 2% DMSO control; read-out: Concentration at 90% Inhibition Fm
Description: as §1, §2, §3, §4

C. krusei = test: Antifungal Activity Assay (broth microtiter MIC), C. krusei; assay type: cell-based, Candida krusei; conditions: Pichia kudriavzevii, ATCC6258, 48 h, Table 3b (additional results); ATCC 6258; 3 replicates; MIC recorded at 48 h; read-out: MIC, C. krusei ATCC 6258
Outline: as §5

[4] = test system: Fusarium virguliforme (Fv); test: Growth inhibition assay of fungal pathogens, Fv; assay type: cell-based; conditions: 48 h, growth inhibition at 48 hours vs 2% DMSO control, read-out: Concentration at 90% Inhibition Fv
Description: as §1, §2, §3, §4

Diplodia maydis (Dm) = test: Growth inhibition assay of fungal pathogens, Dm; assay type: cell-based; conditions: Stenocarpella maydis, 48 h, Diplodia maydis; growth inhibition at 48 hours vs 2% DMSO control; read-out: Concentration at 90% Inhibition Dm
Description: as §1, §2, §3, §4

Botrtyis cinerea (Bc) = test: Growth inhibition assay of fungal pathogens, Bc; assay type: cell-based; conditions: 48 h, Botrtyis cinerea; growth inhibition at 48 hours vs 2% DMSO control; read-out: Concentration at 90% Inhibition Bc
Description: as §1, §2, §3, §4

C. albicans = test: Antifungal Activity Assay (broth microtiter MIC), C. albicans; assay type: cell-based, Candida albicans; conditions: Candida albicans, ATCC90028, 48 h, Table 3b (additional results); ATCC 90028; 3 replicates; MIC recorded at 48 h; read-out: MIC, C. albicans ATCC 90028
Outline: as §5

fungal (fACC2) = fungal (fACC2) (UniProt Q00955); conditions: read-out: fACC2 (in vitro ACC2 Inhibition Assay, IC50); Table 2b, additional results; ADP-Glo, 5 nM ACC2, 20 μM ATP, 20 μM acetyl-CoA
Sequence of fungal (fACC2) (Q00955 whole entry): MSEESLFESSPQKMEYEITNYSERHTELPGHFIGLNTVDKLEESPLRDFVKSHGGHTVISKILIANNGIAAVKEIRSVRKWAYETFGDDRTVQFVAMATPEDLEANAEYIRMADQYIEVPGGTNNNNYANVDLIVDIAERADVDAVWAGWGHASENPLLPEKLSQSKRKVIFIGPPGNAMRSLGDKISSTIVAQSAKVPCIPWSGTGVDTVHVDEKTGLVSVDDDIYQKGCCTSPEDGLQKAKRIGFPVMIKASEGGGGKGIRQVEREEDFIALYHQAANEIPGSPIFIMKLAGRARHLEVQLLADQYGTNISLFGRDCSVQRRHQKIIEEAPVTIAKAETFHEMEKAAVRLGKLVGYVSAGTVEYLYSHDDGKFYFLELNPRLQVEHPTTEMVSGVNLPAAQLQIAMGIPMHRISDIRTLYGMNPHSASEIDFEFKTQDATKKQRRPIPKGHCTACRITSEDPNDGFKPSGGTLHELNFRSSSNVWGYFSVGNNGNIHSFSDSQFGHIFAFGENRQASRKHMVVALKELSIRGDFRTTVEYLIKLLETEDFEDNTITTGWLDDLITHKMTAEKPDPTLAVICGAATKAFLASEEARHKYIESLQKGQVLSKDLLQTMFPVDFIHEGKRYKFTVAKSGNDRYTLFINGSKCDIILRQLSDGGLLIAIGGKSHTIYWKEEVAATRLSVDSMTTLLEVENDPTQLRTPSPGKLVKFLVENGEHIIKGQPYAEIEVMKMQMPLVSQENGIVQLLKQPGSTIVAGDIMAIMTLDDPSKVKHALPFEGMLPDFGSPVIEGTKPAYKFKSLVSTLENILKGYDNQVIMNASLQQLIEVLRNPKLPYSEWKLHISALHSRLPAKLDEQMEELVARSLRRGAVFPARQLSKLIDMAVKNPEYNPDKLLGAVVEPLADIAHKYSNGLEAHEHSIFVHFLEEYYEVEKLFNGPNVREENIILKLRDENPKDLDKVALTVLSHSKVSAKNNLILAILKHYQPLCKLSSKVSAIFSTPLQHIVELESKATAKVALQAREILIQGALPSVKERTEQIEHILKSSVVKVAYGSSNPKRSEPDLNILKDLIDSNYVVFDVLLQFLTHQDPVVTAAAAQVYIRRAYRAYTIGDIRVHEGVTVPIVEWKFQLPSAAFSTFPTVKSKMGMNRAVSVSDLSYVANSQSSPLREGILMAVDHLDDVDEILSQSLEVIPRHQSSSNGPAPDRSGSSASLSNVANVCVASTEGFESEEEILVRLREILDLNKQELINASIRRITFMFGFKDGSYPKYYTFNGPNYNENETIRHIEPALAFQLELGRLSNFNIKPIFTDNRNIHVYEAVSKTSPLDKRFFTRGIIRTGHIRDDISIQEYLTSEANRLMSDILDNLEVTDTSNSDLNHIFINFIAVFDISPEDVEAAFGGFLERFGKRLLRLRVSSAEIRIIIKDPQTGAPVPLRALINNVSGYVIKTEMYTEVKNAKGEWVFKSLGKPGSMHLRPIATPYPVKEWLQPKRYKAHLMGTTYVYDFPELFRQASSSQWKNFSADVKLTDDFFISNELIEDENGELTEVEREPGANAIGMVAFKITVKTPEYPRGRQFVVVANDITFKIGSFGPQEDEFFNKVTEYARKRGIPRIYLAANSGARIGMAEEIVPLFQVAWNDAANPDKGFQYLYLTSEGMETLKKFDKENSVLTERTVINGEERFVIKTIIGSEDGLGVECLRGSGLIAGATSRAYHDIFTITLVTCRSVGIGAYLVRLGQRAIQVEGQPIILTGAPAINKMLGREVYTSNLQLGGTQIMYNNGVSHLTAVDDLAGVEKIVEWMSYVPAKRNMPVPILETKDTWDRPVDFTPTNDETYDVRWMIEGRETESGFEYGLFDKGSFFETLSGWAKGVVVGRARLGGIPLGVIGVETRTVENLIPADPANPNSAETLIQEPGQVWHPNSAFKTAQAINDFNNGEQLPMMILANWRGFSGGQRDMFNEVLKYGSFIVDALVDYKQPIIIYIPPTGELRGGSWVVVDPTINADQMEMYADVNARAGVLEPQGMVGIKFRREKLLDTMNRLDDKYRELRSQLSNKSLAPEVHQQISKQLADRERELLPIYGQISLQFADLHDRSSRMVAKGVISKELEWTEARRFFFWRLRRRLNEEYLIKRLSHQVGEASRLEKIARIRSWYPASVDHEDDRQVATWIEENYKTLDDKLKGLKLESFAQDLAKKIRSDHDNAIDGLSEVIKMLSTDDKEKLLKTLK

| IC50 (human (hACC2)) | MIC (C. parapsilosis) | MIC (C. krusei) | MIC (C. albicans) | Compound | IC90 (Rhizoctonia solani (Rs)) | IC90 [1] | IC90 [2] | IC90 (Septoria tritici (St)) | IC90 [3] | IC90 [4] | IC90 (Diplodia maydis (Dm)) | IC90 (Botrtyis cinerea (Bc)) | IC50 (fungal (fACC2)) |
| --- | --- | --- | --- | --- | --- | --- | --- | --- | --- | --- | --- | --- | --- |
| 10 to 40 nM | 1.01 to 2 µg/mL (≈ 1.88 to 3.71 µM) | 1.01 to 2 µg/mL (≈ 1.88 to 3.71 µM) | 1.01 to 2 µg/mL (≈ 1.88 to 3.71 µM) | COc1ccccc1[C@@H](O)Cn1c(=O)n(C(C)(C)C(=O)N2CCCC2)c(=O)c2c(C)c(-n3nccn3)sc21 [Compound I-189] | 0.08 µg/mL (≈ 0.149 µM) | > 50 µg/mL | > 50 µg/mL | > 50 µg/mL | 10 µg/mL (≈ 18.6 µM) | 10 µg/mL (≈ 18.6 µM) | > 50 µg/mL | 10 µg/mL (≈ 18.6 µM) | – |
| 5 to 10 nM | 1.01 to 2 µg/mL (≈ 1.87 to 3.7 µM) | 1.01 to 2 µg/mL (≈ 1.87 to 3.7 µM) | 1.01 to 2 µg/mL (≈ 1.87 to 3.7 µM) | COc1ccc(F)cc1[C@@H](O)Cn1c(=O)n([C@@H](C)C(=O)N2CC=CC2)c(=O)c2c(C)c(-n3nccn3)sc21 [Compound I-193] | 2 µg/mL (≈ 3.7 µM) | 10 µg/mL (≈ 18.5 µM) | > 50 µg/mL | > 50 µg/mL | 2 µg/mL (≈ 3.7 µM) | 2 µg/mL (≈ 3.7 µM) | > 50 µg/mL | 10 µg/mL (≈ 18.5 µM) | – |

| Compound | IC50 (human (hACC2)) | MIC (C. parapsilosis) | MIC (C. krusei) | MIC (C. albicans) | IC90 (Rhizoctonia solani (Rs)) | IC90 [1] | IC90 [2] | IC90 (Septoria tritici (St)) | IC90 [3] | IC90 [4] | IC90 (Diplodia maydis (Dm)) | IC90 (Botrtyis cinerea (Bc)) | IC50 (fungal (fACC2)) |
| --- | --- | --- | --- | --- | --- | --- | --- | --- | --- | --- | --- | --- | --- |
| COc1ccc(F)cc1[C@@H](Cn1c(=O)n(C(C)(C)C(=O)NC(C)C)c(=O)c2c(C)c(-n3nccn3)sc21)OC(C)=O [Compound I-259] | 5 to 10 nM | – | – | – | 0.08 µg/mL (≈ 0.136 µM) | 0.4 µg/mL (≈ 0.682 µM) | > 50 µg/mL | > 50 µg/mL | 0.08 µg/mL (≈ 0.136 µM) | 0.08 µg/mL (≈ 0.136 µM) | 0.4 µg/mL (≈ 0.682 µM) | 0.4 µg/mL (≈ 0.682 µM) | 1 to 5 nM |
